Experiments:
Assay in all cases: relative viability (nuclei count vs DMSO), 5 days (fraction); higher = more cells survive
[1] = tested on: EMC-BAC-2
Summary of the method: (§1)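 Lung cancer cell lines were seeded in 1536-well plates and dosed by pin tool the next day, with either a single drug or a fixed anchor-drug dose combined with five library-drug doses (not always all listed) spaced in √10 steps. Five days later, one step fixed the cells and stained their nuclei (final 0.05% Triton X-100, 1% formaldehyde, 1 ug/ml Hoechst), and nuclei were counted on 4× images. Relative viability is the nuclei count in treated wells divided by the count in vehicle wells, and each value is the median of duplicate plates.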

[2] = tested on: NCI-H1944
Summary of the method: as §1

[3] = tested on: A-427
Summary of the method: as §1

[4] = tested on: NCI-H1793
Summary of the method: as §1

[5] = tested on: NCI-H2228
Summary of the method: as §1

[6] = tested on: SW 900
Summary of the method: as §1

[7] = tested on: COR-L23
Summary of the method: as §1

[8] = tested on: NCI-H1993
Summary of the method: as §1

[9] = tested on: SW 1573
Summary of the method: as §1

[10] = tested on: PC-3 [JPC-3]
Summary of the method: as §1

[11] = tested on: ABC-1
Summary of the method: as §1

[12] = tested on: NCI-H2170
Summary of the method: as §1

[13] = tested on: NCI-H727
Summary of the method: as §1

[14] = tested on: HOP-62
Summary of the method: as §1

[15] = tested on: NCI-H596
Summary of the method: as §1

[16] = tested on: NCI-H2009
Summary of the method: as §1

[17] = tested on: LK-2
Summary of the method: as §1

[18] = tested on: NCI-H3122
Summary of the method: as §1

[19] = tested on: SK-LU-1
Summary of the method: as §1

[20] = tested on: SK-MES-1
Summary of the method: as §1

[21] = tested on: LXF-289
Summary of the method: as §1

[22] = tested on: HARA
Summary of the method: as §1

How did the relative viability ([1]; first compound 0.08 µM) turn out when Oc1nc(-c2ccc(C(F)(F)F)cc2)nc2c1CSCC2 [XAV939] + COc1cc2c(Oc3ccc(NC(=O)C4(C(=O)Nc5ccc(F)cc5)CC4)cc3F)ccnc2cc1OCCCN1CCOCC1 [Foretinib] (partner 0.25 µM) was run?
Its relative viability is 1.05.

And the relative viability ([1]; first compound 0.253 µM)?
The relative viability was 0.747.

And the relative viability ([1]; first compound 0.8 µM)?
Its relative viability is 0.848.

And the relative viability ([1]; first compound 2.53 µM)?
Its relative viability is 0.553.

What about the relative viability ([2]; first compound 0.08 µM) of the same compound?
The relative viability was 0.942.

And the relative viability ([2]; first compound 0.253 µM)?
Its relative viability is 0.842.

What about the relative viability ([2]; first compound 0.8 µM) of the same compound?
The relative viability was 0.814.

And the relative viability ([2]; first compound 2.53 µM)?
The relative viability was 0.704.

And the relative viability ([3]; first compound 0.08 µM)?
Its relative viability is 1.26.

And the relative viability ([3]; first compound 0.253 µM)?
Its relative viability is 1.07.

And the relative viability ([3]; first compound 0.8 µM)?
Its relative viability is 1.04.

And the relative viability ([3]; first compound 2.53 µM)?
Its relative viability is 0.862.

What about the relative viability ([4]; first compound 0.08 µM) of the same compound?
Its relative viability is 0.846.

And the relative viability ([4]; first compound 0.253 µM)?
Its relative viability is 0.558.

And the relative viability ([4]; first compound 0.8 µM)?
The relative viability was 0.63.

And the relative viability ([4]; first compound 2.53 µM)?
Its relative viability is 0.454.

What about the relative viability ([5]; first compound 0.08 µM) of the same compound?
Its relative viability is 0.98.

What about the relative viability ([5]; first compound 0.253 µM) of the same compound?
Its relative viability is 0.874.

And the relative viability ([5]; first compound 0.8 µM)?
Its relative viability is 0.91.

And the relative viability ([5]; first compound 2.53 µM)?
Its relative viability is 0.847.

What about the relative viability ([6]; first compound 0.08 µM) of the same compound?
The relative viability was 0.848.

And the relative viability ([6]; first compound 0.253 µM)?
Its relative viability is 0.765.

What about the relative viability ([6]; first compound 0.8 µM) of the same compound?
Its relative viability is 0.767.

What about the relative viability ([6]; first compound 2.53 µM) of the same compound?
The relative viability was 0.82.

What about the relative viability ([7]; first compound 0.08 µM) of the same compound?
The relative viability was 1.13.

What about the relative viability ([7]; first compound 0.253 µM) of the same compound?
The relative viability was 0.96.

And the relative viability ([7]; first compound 0.8 µM)?
The relative viability was 0.948.

What about the relative viability ([7]; first compound 2.53 µM) of the same compound?
The relative viability was 0.903.

What about the relative viability ([8]; first compound 0.08 µM) of the same compound?
Its relative viability is 0.753.

And the relative viability ([8]; first compound 0.253 µM)?
The relative viability was 0.7.

What about the relative viability ([8]; first compound 0.8 µM) of the same compound?
The relative viability was 0.688.

What about the relative viability ([8]; first compound 2.53 µM) of the same compound?
Its relative viability is 0.65.

And the relative viability ([9]; first compound 0.08 µM)?
Its relative viability is 1.2.

What about the relative viability ([9]; first compound 0.253 µM) of the same compound?
The relative viability was 0.816.

What about the relative viability ([9]; first compound 0.8 µM) of the same compound?
Its relative viability is 0.732.

And the relative viability ([9]; first compound 2.53 µM)?
The relative viability was 0.788.

What about the relative viability ([10]; first compound 0.08 µM) of the same compound?
Its relative viability is 1.03.

And the relative viability ([10]; first compound 0.253 µM)?
Its relative viability is 0.854.

What about the relative viability ([10]; first compound 0.8 µM) of the same compound?
Its relative viability is 1.02.

And the relative viability ([10]; first compound 2.53 µM)?
The relative viability was 0.951.

What about the relative viability ([11]; first compound 0.08 µM) of the same compound?
Its relative viability is 1.16.

And the relative viability ([11]; first compound 0.253 µM)?
The relative viability was 0.732.

And the relative viability ([11]; first compound 0.8 µM)?
The relative viability was 0.935.

And the relative viability ([11]; first compound 2.53 µM)?
The relative viability was 0.635.

What about the relative viability ([12]; first compound 0.08 µM) of the same compound?
Its relative viability is 1.03.

And the relative viability ([12]; first compound 0.253 µM)?
The relative viability was 1.01.

And the relative viability ([12]; first compound 0.8 µM)?
The relative viability was 0.979.

What about the relative viability ([12]; first compound 2.53 µM) of the same compound?
Its relative viability is 0.864.

What about the relative viability ([13]; first compound 0.08 µM) of the same compound?
The relative viability was 0.997.

What about the relative viability ([13]; first compound 0.253 µM) of the same compound?
Its relative viability is 0.774.

And the relative viability ([13]; first compound 0.8 µM)?
The relative viability was 0.821.

What about the relative viability ([13]; first compound 2.53 µM) of the same compound?
Its relative viability is 0.928.

What about the relative viability ([14]; first compound 0.08 µM) of the same compound?
Its relative viability is 1.23.

And the relative viability ([14]; first compound 0.253 µM)?
Its relative viability is 1.04.

What about the relative viability ([14]; first compound 0.8 µM) of the same compound?
Its relative viability is 0.996.

What about the relative viability ([14]; first compound 2.53 µM) of the same compound?
The relative viability was 0.943.

And the relative viability ([15]; first compound 0.08 µM)?
Its relative viability is 0.814.

What about the relative viability ([15]; first compound 0.253 µM) of the same compound?
The relative viability was 0.874.

And the relative viability ([15]; first compound 0.8 µM)?
The relative viability was 0.84.

What about the relative viability ([15]; first compound 2.53 µM) of the same compound?
The relative viability was 0.797.

And the relative viability ([16]; first compound 0.08 µM)?
The relative viability was 1.32.

And the relative viability ([16]; first compound 0.253 µM)?
Its relative viability is 1.21.

And the relative viability ([16]; first compound 0.8 µM)?
The relative viability was 1.18.

What about the relative viability ([16]; first compound 2.53 µM) of the same compound?
Its relative viability is 1.16.

What about the relative viability ([17]; first compound 0.08 µM) of the same compound?
The relative viability was 1.96.

And the relative viability ([17]; first compound 0.253 µM)?
The relative viability was 1.19.

And the relative viability ([17]; first compound 0.8 µM)?
Its relative viability is 1.08.

And the relative viability ([17]; first compound 2.53 µM)?
The relative viability was 1.13.

And the relative viability ([18]; first compound 0.08 µM)?
The relative viability was 0.926.

And the relative viability ([18]; first compound 0.253 µM)?
Its relative viability is 0.918.

What about the relative viability ([18]; first compound 0.8 µM) of the same compound?
The relative viability was 0.942.

And the relative viability ([18]; first compound 2.53 µM)?
Its relative viability is 0.909.

And the relative viability ([19]; first compound 0.08 µM)?
Its relative viability is 0.861.

And the relative viability ([19]; first compound 0.253 µM)?
The relative viability was 0.756.

And the relative viability ([19]; first compound 0.8 µM)?
The relative viability was 0.883.

What about the relative viability ([19]; first compound 2.53 µM) of the same compound?
Its relative viability is 0.78.

What about the relative viability ([20]; first compound 0.08 µM) of the same compound?
The relative viability was 1.02.

And the relative viability ([20]; first compound 0.253 µM)?
The relative viability was 0.841.

What about the relative viability ([20]; first compound 0.8 µM) of the same compound?
Its relative viability is 0.864.

What about the relative viability ([20]; first compound 2.53 µM) of the same compound?
Its relative viability is 0.82.

What about the relative viability ([21]; first compound 0.08 µM) of the same compound?
The relative viability was 0.985.

And the relative viability ([21]; first compound 0.253 µM)?
Its relative viability is 0.95.

And the relative viability ([21]; first compound 0.8 µM)?
The relative viability was 0.967.

And the relative viability ([21]; first compound 2.53 µM)?
The relative viability was 0.988.

What about the relative viability ([22]; first compound 0.08 µM) of the same compound?
Its relative viability is 1.03.

And the relative viability ([22]; first compound 0.253 µM)?
The relative viability was 0.79.

And the relative viability ([22]; first compound 0.8 µM)?
Its relative viability is 0.248.

What about the relative viability ([22]; first compound 2.53 µM) of the same compound?
Its relative viability is 0.678.
